The values below are quoted from earlier work in US12409131B2, “Transdermal delivery of dronabinol” (Pike Therapeutics USA, Inc., priority 2019, dated 2025).

The conditions of series [1]: in 96 hrs through human cadaver skin, U.S. Pat. No. 8,449,908.

On to `CCCCCc1cc(O)c2c(c1)OC(C)(C)[C@@H]1CCC(C)=C[C@@H]21` (relative stereo) [dronabinol, (6aR-trans)-6a,7,8,10a-tetrahydro-6,6,9-trimethyl-3-pentyl-6H-dibenzo[b,d]pyran-1-ol], for which the Oral bioavailability is 10-20%. Moreover, the cumulative amount delivered in series [1] is 10000 ng.
